Molecules are shown by their SMILES.

This is an account of results in ChEMBL document CHEMBL5360613, “Unveiling New KRASG12D Inhibitors: A Promising Approach for Pancreatic Cancer Therapy” (ACS Med Chem Lett, 2023).

This assay deals with GTPase KRas (Homo sapiens, UniProt P01116, G12D). The assay is described as follows: Inhibition of KRAS G12D mutant in human PANC-1 cells assessed as reduction in phosphorylation of ERK 1/2 level incubated for 3 hrs. In kind it is cell-based.
Chain of GTPase KRas (P01116 whole entry G12D): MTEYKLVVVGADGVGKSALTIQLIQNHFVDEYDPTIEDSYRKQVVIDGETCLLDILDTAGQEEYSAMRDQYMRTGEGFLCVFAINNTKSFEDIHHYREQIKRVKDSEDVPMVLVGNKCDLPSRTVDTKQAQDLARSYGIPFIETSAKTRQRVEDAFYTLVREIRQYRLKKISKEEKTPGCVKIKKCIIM
Regarding `C#Cc1cccc2cc(O)cc(-c3ncc4c(N5C[C@H]6CC[C@@H](C5)N6)cc(OC[C@@]56CCCN5C[C@H](F)C6)nc4c3F)c12`, the half-maximal inhibitory concentration (IC50) amounted to 9.5 nM.
In the case of `Oc1cc(-c2ncc3c(N4C[C@H]5CC[C@@H](C4)N5)cc(OC[C@@]45CCCN4C[C@H](F)C5)nc3c2F)c2c(F)cccc2c1` it was 40 nM; in that of `CCc1c(F)ccc2cc(O)cc(-c3ncc4c(N5C[C@H]6CC[C@@H](C5)N6)cc(OC[C@@]56CCCN5C[C@H](F)C6)nc4c3F)c12`, 46 nM; in that of `C#Cc1c(F)ccc2cc(O)cc(-c3ncc4c(N5CC6CCC(C)(C5)N6)cc(OC[C@@]56CCCN5C[C@H](F)C6)nc4c3F)c12` (stereo partly drawn), 24 nM.
In the case of `Oc1cc(N2CCc3c(nc(OCC45CCCN4CCC5)nc3N3C[C@H]4CC[C@@H](C3)N4)C2)c2c(Cl)cccc2c1` it was 15 nM; in that of `C#Cc1c(F)ccc2cc(O)cc(-c3ncc4c(N5C[C@H]6CC[C@@H](C5)N6)cc(OC[C@@]56CCCN5C[C@H](F)C6)nc4c3F)c12`, 7.9 nM.
In the case of `CCc1c(F)ccc2cc(O)cc(-c3ncc4c(N5C[C@H]6CC[C@@H](C5)N6)cc(C#C[C@@]56CCCN5C[C@H](F)C6)nc4c3F)c12` it was 305 nM; in that of `C#Cc1c(F)ccc2cc(O)cc(-c3ncc4c(N5C[C@H]6CC[C@@H](C5)N6)cc(C#C[C@@]56CCCN5C[C@H](F)C6)nc4c3F)c12`, 439 nM.
